Compared with CC(=O)Oc1ccc(C=C2CCCc3cc(C)cnc32)cc1, CCCC(=O)Nc1ccc(OCc2nc3cc(F)ccc3s2)cc1 is higher in melting point: 119 to 122 °C for the first, 201 to 202 °C for the second.

First: Clc1cc(Cl)nc(-c2ccc(Sc3ccccc3)cc2)n1
Second: Cc1ccc(-c2ccccc2-c2n[nH]c(=O)o2)cc1
The melting point of the first is lower: 94 to 97 °C for the first, 123 to 125 °C for the second.

First: OCCN=C1c2ccccc2CCc2ccccc21
Second: O=C(O)c1cc(-n2c(-c3ccccc3)cc3c2-c2ccccc2CC3)ccc1O
The melting point of the first is lower: 93 to 94 °C for the first, 215 to 218 °C for the second.

First: CC(C)CC(O)c1cccc(NC(=O)OCc2ccccc2)c1 (configuration not stated)
Second: CC(C)CC(NC(=O)C(Cc1c[nH]cn1)NC(=O)C(Cc1cccc2ccccc12)NC(=O)OCc1ccccc1)C(O)CC(=O)O (configuration not stated)
The melting point of the first is lower: 73 to 77 °C for the first, 191 to 192 °C for the second.

First: O=C1CCN(c2ncc(-c3ccc(Cl)cc3Cl)nn2)CC1
Second: Cc1nnc2n1-c1ccc(Cl)cc1C(N1CCCCC1)=NC2
The melting point of the first is lower: 120 to 122 °C for the first, 238 to 243 °C for the second.

Compared with COP(=O)(NC1C(=O)N2C(C(=O)OCc3ccccc3)=C(C=CN(C)C)CSC12)OC (configuration not stated), COc1cc2c(cc1OCc1ccccc1)CCN(Cc1cc(OC)c(OC)c(OC)c1)C2=O is higher in melting point: 126 to 128 °C for the first, 136 to 137 °C for the second.

Compared with COc1c(Br)ccc2ccc(Cl)nc12, Nc1ccc(OCc2ccc3ccccc3n2)cc1 is lower in melting point: 130 to 132 °C for the first, 126 to 128 °C for the second.

Compared with CCc1nnc(-c2ccc3occ(-c4ccc(SC)cc4)c3c2)o1, CC(=O)Nc1ccc(-c2cccc(-c3nc(C(C)C)[nH]c3-c3cccc(C)n3)c2)cc1 is lower in melting point: 164 to 165 °C for the first, 140 to 145 °C for the second.

Compared with CCOC(=O)C(=CN(C)C)C(=O)c1ccc(Br)cc1Cl, CCOC(=O)/C(C)=C/c1ccc(OC(C)C)cc1Oc1ncc(C(F)(F)F)cc1Cl is lower in melting point: 100 to 101 °C for the first, 61 to 62 °C for the second.

First: O=C(O)CCC(=O)c1ccc(-c2ccc(Cl)cc2)o1
Second: O=C(O)Cc1cccc(C(=O)c2ccc(O)cc2)c1
The melting point of the first is lower: 142 to 144 °C for the first, 147 to 149 °C for the second.

Compared with NC(=O)Cc1ccc(-c2ccc(F)cc2F)c(F)c1, CC(CO)c1ccc(-c2ccccc2F)c(F)c1 (configuration not stated) is lower in melting point: 137 to 140 °C for the first, 80 to 82.5 °C for the second.

Compared with N#CCC=C1c2ccccc2C=Cc2ccccc21, CN1CCC(=C2c3ccccc3C=C(Br)c3ccccc32)CC1 is higher in melting point: 95 to 101 °C for the first, 127 to 129 °C for the second.

First: COc1ccccc1C(=O)Nc1ccc(N2CCCC2)cc1C(C)=O
Second: COC(=O)c1cc(N=[N+]=[N-])ccc1Nc1ccccc1
The melting point of the first is higher: 168 to 170 °C for the first, 64 to 65 °C for the second.

First: CCOCc1nc2c(N)nc3cc(OCCCc4cccnc4)ccc3c2n1CC(C)(C)O
Second: CCCOCCOc1ccc(-c2ccc3c(c2)C=C(C(=O)O)CCN3CCCOC)cc1
The melting point of the first is higher: 160 to 161 °C for the first, 114 to 115 °C for the second.

Compared with CN1C(=O)c2cc(CCc3ccncc3)cnc2N(C2CC2)c2nc(Cl)ccc21, COc1ccc(Nc2ncc3cc(-c4c(Cl)cccc4Cl)c(=O)n(C)c3n2)cn1 is higher in melting point: 218 to 219 °C for the first, 233 to 235 °C for the second.

First: N#Cc1cnc2sc(-c3ccccc3)cc2c1NCc1ccc2[nH]ccc2c1
Second: CC1(c2ccccc2)SCN=C1COc1ccc(C#N)cn1 (configuration not stated)
The melting point of the first is higher: 219 to 221 °C for the first, 124 to 125 °C for the second.

First: COC(=O)c1ccc(OC)nc1F
Second: COc1ncccc1NC(=O)[C@H]1[C@H](c2ccccc2)C1(C)C (relative stereo)
The melting point of the first is lower: 81 to 82 °C for the first, 152 to 154 °C for the second.

Compared with COC(=O)COc1cccc2c(CCSC(c3ccc(O)cc3)c3ccc(O)cc3)c(C)oc12, CCOC(=O)c1ccc(NC(=O)C=C(c2ccc(OC)cc2)c2ccc(OC)cc2)cc1 is lower in melting point: 178 to 180 °C for the first, 156 to 159 °C for the second.

Compared with C=CCC(C(N)=O)C(CC(C)C)C(=O)NC1N=C(c2cccnc2)c2ccccc2N(C)C1=O (configuration not stated), O=C1c2cc(Br)ccc2CCC1Cc1cccnc1 (configuration not stated) is lower in melting point: 251 to 253 °C for the first, 63 to 67 °C for the second.

First: CCCCCCCCCCCCCCCCCCN(C)c1ccc([N+](=O)[O-])cc1C(=O)O
Second: Nc1ccc(CCNCCCCCCNCCc2ccc(O)c(O)c2)cc1
The melting point of the first is lower: 108 to 109 °C for the first, over 250 °C for the second.

First: O=C(O)Cc1ccc2c(c1)C(=O)c1cc(C(F)(F)F)ccc1CO2
Second: O=C1OC(=O)c2cc3cc(O)ccc3cc21
The melting point of the first is lower: 152 to 155 °C for the first, 266 °C for the second.

Compared with O=c1oc2c(c(OCCN3CCOCC3)c1-c1ccccc1)CCCC2, CN1CCn2c1c(-c1ccccc1)c1ncccc1c2=O is higher in melting point: 115 °C for the first, 237 to 240 °C for the second.

Compared with CC1(C)CCc2c(N3CCCC3)nc3sc4c(NCc5cncc6ccccc56)ncnc4c3c2C1, COc1cc2c(cc1OC)CN(CC(O)CC1(c3noc4cc(F)ccc34)CCNCC1)CC2 (configuration not stated) is lower in melting point: 276 to 277 °C for the first, 153 to 154 °C for the second.

First: CCCCN(Cc1ccc(-c2ccccc2-c2nnn[nH]2)cc1)c1ncncc1C(=O)OC(C)OC(=O)c1ccccc1 (configuration not stated)
Second: CC(=O)Nc1ccc(C(=O)NCc2ccc(-n3c(-c4cccnc4N)nc4cc(C)cnc43)cc2)cc1
The melting point of the first is lower: 79 to 88 °C for the first, 171 to 172 °C for the second.

First: O=S1c2ccccc2Oc2ccc(-c3nnn[nH]3)cc21 (configuration not stated)
Second: Cc1ccccc1C(=O)N1CCc2nnc(NN)cc2C1
The melting point of the first is higher: 267 to 268 °C for the first, 98 to 100 °C for the second.

Compared with C=CCOC(=O)c1ccc(N)cc1, Nc1ccc(I)cc1CO is higher in melting point: 48 to 50 °C for the first, 125 °C for the second.

First: CCc1c(F)nc(-c2ccccc2)nc1F
Second: CS(=O)(=O)N(Cc1cncnc1)c1ccc(F)cc1F
The melting point of the first is lower: 49 to 51 °C for the first, 142 to 145 °C for the second.

First: Cc1ccn2cc(CN3CCN(c4ccc(C(N)=O)cc4)CC3)nc2c1
Second: Cn1cc(C(=O)c2ccnc(Cl)c2)cc1C(=O)c1ccc(Cl)cc1
The melting point of the first is higher: 217 to 218 °C for the first, 182 to 184 °C for the second.

First: C/C(=N\O)c1cccc(-c2nc3sccn3c2-c2ccnc(N[C@@H]3CCCN(S(=O)(=O)c4ccc(Cl)cc4)C3)n2)c1
Second: COc1ncc(-c2cc(NC(=O)c3csc(CN4C[C@@H](C)O[C@@H](C)C4)n3)c3cn[nH]c3c2)cc1NS(=O)(=O)c1ccc(F)cc1F
The melting point of the first is lower: 156 to 158 °C for the first, 211 to 212 °C for the second.

COc1ccc2[nH]cc(-c3cc4c(OC)ncnc4[nH]3)c2c1 and COc1cc2c(c(OC(C)=O)c1OC)=NC(=O)C(=O)N=2 cannot be ordered by melting point: over 260 °C for the first, 321 to 322 °C for the second.

First: O=C(CCCOc1ccc2nc3[nH]c(=O)[nH]c3cc2c1)NC1CCCCCC1
Second: O=C(N[C@@H](CO)c1nc2cc(Br)ccc2[nH]1)c1ccc(C(=O)N2CC=CC2)c(Cl)c1
The melting point of the first is higher: 314 to 316 °C for the first, 124 to 126 °C for the second.

First: CSCc1nn(-c2c(Cl)cc(C(F)(F)F)cc2Cl)nc1C=NC(C#N)=C(N)C#N
Second: CNS(=O)(=O)c1cn(C)c2cc(Cl)c(F)cc2c1=O
The melting point of the first is higher: 237 to 239 °C for the first, 235 to 236 °C for the second.

First: Cc1c(C)c(C)c2c(c1C)C=CC(C)(COc1ccc([N+](=O)[O-])cc1)O2 (configuration not stated)
Second: CCC1Cc2cc3c(cc2C(c2ccc([N+](=O)[O-])cc2)O1)OCO3 (configuration not stated)
The melting point of the first is higher: 142 to 145 °C for the first, 116 to 118 °C for the second.

Compared with Cc1[nH]cnc1CSCCSC#N, Cc1ccc(Cc2c[nH]c(NCCSCc3ccco3)nc2=O)cn1 is higher in melting point: 101 to 103 °C for the first, 147 to 152 °C for the second.

First: COc1ccc(NC(=O)Nc2ccc(C(=O)O)cc2)cc1C12CC3CC(CC(C3)C1)C2
Second: CSc1sc(C(=O)N(C)C)c2c1-c1oncc1C(C)(C)C2
The melting point of the first is higher: 140 to 141 °C for the first, 113 to 115 °C for the second.

Compared with O=C(NCCCCC1CCSS1)NCCCCC1CCSS1 (configuration not stated), Cc1ccc(S(=O)(=O)N(C)F)cc1 is lower in melting point: 115 to 116 °C for the first, 42 to 44 °C for the second.

Reference: a melting point compilation (Tetko et al.; mined from patent text by program, amines drawn as free bases though some values may be those of a salt)
